The record followed here is the OligoGym collection.

After the bases stand the sugars from the 5' end (letter, count) and the backbone: PS all phosphorothioate, else s phosphorothioate and o phosphodiester by linkage. Methylation of C is not given here. e = 2'-O-(2-methoxyethyl) (MOE); k = constrained ethyl (cEt); d = 2'-deoxy (DNA); m = 2'-O-methyl

The first data set concerns the target HSD17B13. The settings on record: ASO, HepaRG, 0.02 µM.
Consider TGTATTTCGCTACTGT (sugars k3 d10 k3, PS), for which the target mRNA inhibition was determined as 12%.
Same read-out and setting: to TTATAACTACAAGAGG (sugars k3 d10 k3, PS) belongs 1%.
Still for that read-out and setting: with TTATGTAATAGCCAGT (sugars k3 d10 k3, PS) the figure was 16%.

The same data set, now with this note: ASO, HepaRG, 0.078 µM.
TGTATTTCGCTACTGT (sugars k3 d10 k3, PS): the target mRNA inhibition amounted to 18%.
The same measure, in the same setting: with TTATAACTACAAGAGG (sugars k3 d10 k3, PS) the figure was 25%.
On the same count and under the same terms, to TTATGTAATAGCCAGT (sugars k3 d10 k3, PS) belongs 21%.

Staying with this data set, now noted: ASO, HepaRG, 0.313 µM.
Regarding TGTATTTCGCTACTGT (sugars k3 d10 k3, PS), the target mRNA inhibition worked out at 46%.
On the same count and under the same terms, with TTATAACTACAAGAGG (sugars k3 d10 k3, PS) the figure was 26%; with TTATGTAATAGCCAGT (sugars k3 d10 k3, PS), 59%.

Still in this data set, the particulars now being: ASO, HepaRG, 1 µM.
TGTAAAGTTTGTTAGA (sugars k3 d10 k3, PS) yielded a target mRNA inhibition of 35%.
Consider “TGTAATAGCCAGTACA (sugars k3 d1 m1 d8 k3, PS)”, for which the target mRNA inhibition was determined as 40%.
The same measure, in the same setting: with TGTAATAGCCAGTACA (sugars k3 d10 k3, PS) the figure was 46%.
The sequence TGTACAGTAGGCAGTT (sugars k3 d10 k3, PS) returned a target mRNA inhibition of 75%.
Same read-out and setting: with TGTATCTTATAAGACT (sugars k3 d10 k3, PS) the figure was 45%; with TGTATTTCGCTACTGT (sugars k3 d10 k3, PS), 76%.
In turn, TGTCAGACCTCTGTGA (sugars k3 d10 k3, PS) came in with a target mRNA inhibition of 0%.
Same read-out and setting: to TGTCATAAAGGTGGGA (sugars k3 d10 k3, PS) belongs 48%.
Same read-out and setting: to TGTCCACCTTTAAATG (sugars k3 d10 k3, PS) belongs 29%; to TGTCCCAGCATTATTC (sugars k3 d10 k3, PS), 31%.
On the same count and under the same terms, to TGTCCTAGGATGTTGA (sugars k3 d10 k3, PS) belongs 41%; to TGTGAAGAGCTGGTAA (sugars k3 d10 k3, PS), 41%; to TGTGACGATGTGGCCA (sugars k3 d10 k3, PS), 42%.
In turn, TGTGAGAGGATAGTGA (sugars k3 d10 k3, PS) gave a target mRNA inhibition of 50%.
Take TGTGCACTCATTCTGT (sugars k3 d10 k3, PS): the target mRNA inhibition stood at 18%.
On the same count and under the same terms, to “TGTGGCATGGCTACAG (sugars k3 d1 m1 d8 k3, PS)” belongs 5%; to “TGTGGCATGGCTACAG (sugars kkdddddddddkekek, PS)”, 22%; to TGTGTTAGCTTTAATT (sugars k3 d10 k3, PS), 38%.
Still for that read-out and setting: with “TGTGTTCTTGTTGATA (sugars kkdddddddddkekek, PS)” the figure was 64%; with TGTTAAGCAGATGGCT (sugars k3 d10 k3, PS), 39%.
On the same count and under the same terms, to TGTTAGCTAAGGGAGA (sugars k3 d10 k3, PS) belongs 0%; to “TGTTGATATTCTGTGG (sugars k3 d1 m1 d8 k3, PS)”, 48%; to “TGTTGATATTCTGTGG (sugars k3 d9 k3 e1, PS)”, 64%.
“TTAAAATAGAGTCGGT (sugars k3 d1 m1 d8 k3, PS)” showed a target mRNA inhibition of 70%.
On the same count and under the same terms, to TTAAAATAGAGTCGGT (sugars k3 d10 k3, PS) belongs 65%; to “TTAAAATAGAGTCGGT (sugars kkdddddddddkekek, PS)”, 51%.
The same measure, in the same setting: to “TTAAACCTTCCCTGTG (sugars k3 d1 m1 d8 k3, PS)” belongs 23%; to TTAAACCTTCCCTGTG (sugars k3 d10 k3, PS), 22%; to TTAAATCAGGCAGTCA (sugars k3 d10 k3, PS), 45%.
On the same count and under the same terms, with TTAAGATACCCAGGTT (sugars k3 d10 k3, PS) the figure was 37%.
In turn, TTAAGCAGATGGCTTA (sugars k3 d10 k3, PS) came in with a target mRNA inhibition of 0%.
On the same count and under the same terms, with TTAAGTACTGTGAGAC (sugars k3 d10 k3, PS) the figure was 35%; with TTAATGCCACCCTACC (sugars k3 d10 k3, PS), 19%.
Turning to TTACAGCCTTAGAGTG (sugars k3 d10 k3, PS), the target mRNA inhibition was determined as 21%.
On the same count and under the same terms, with TTACATCACCCACTTC (sugars k3 d10 k3, PS) the figure was 37%; with TTACGACTTCATCTGT (sugars k3 d10 k3, PS), 36%.
For TTAGCAAGCTAAGAGA (sugars k3 d10 k3, PS), the target mRNA inhibition stood at 42%.
Still for that read-out and setting: with TTAGCTGTGCACTCAT (sugars k3 d10 k3, PS) the figure was 61%.
Same read-out and setting: with TTAGGAAAGCTCATGG (sugars k3 d10 k3, PS) the figure was 26%; with “TTAGTATAGTTATCTT (sugars kkdddddddddkekek, PS)”, 33%.
The same measure, in the same setting: to “TTAGTCTTGATGTAGT (sugars k3 d9 k3 e1, PS)” belongs 61%; to “TTAGTCTTGATGTAGT (sugars kkdddddddddkekek, PS)”, 36%; to “TTAGTTAGAATAGTCT (sugars kkdddddddddkekek, PS)”, 53%.
Consider TTAGTTGGTAGCTTGC (sugars k3 d10 k3, PS), for which the target mRNA inhibition is 72%.
The same measure, in the same setting: to “TTAGUATAGTTATCTT (sugars k3 d1 m1 d8 k3, PS)” belongs 22%; to “TTAGUCTTGATGTAGT (sugars k3 d1 m1 d8 k3, PS)”, 50%; to TTATAACTACAAGAGG (sugars k3 d10 k3, PS), 68%.
Still for that read-out and setting: to TTATACTGAAGGCTGT (sugars k3 d10 k3, PS) belongs 23%; to TTATGTAATAGCCAGT (sugars k3 d10 k3, PS), 77%; to “TTATGTGATTGAGTTC (sugars k3 d9 k3 e1, PS)”, 30%.
TTATTATGTGATTGAG (sugars k3 d10 k3, PS) returned a target mRNA inhibition of 23%.
Same read-out and setting: to TTATTGGTATGGTAAG (sugars k3 d10 k3, PS) belongs 14%; to TTCACCTGATTTAGAG (sugars k3 d10 k3, PS), 9%; to TTCAGAGTTATACAGA (sugars k3 d10 k3, PS), 66%.
Regarding TTCCATAAAGCTGGAT (sugars k3 d10 k3, PS), the target mRNA inhibition amounted to 5%.
Regarding TTCCGAAAAAAGTGGA (sugars k3 d10 k3, PS), the target mRNA inhibition is 13%.
The same measure, in the same setting: to TTCCGGTAAGAATTTC (sugars k3 d10 k3, PS) belongs 33%; to TTCGAATCATTAAGCT (sugars k3 d10 k3, PS), 63%.
With TTCTAAATTACTCCGT (sugars k3 d10 k3, PS), the target mRNA inhibition is 53%.
On the same count and under the same terms, with TTCTACACCACACTAA (sugars k3 d10 k3, PS) the figure was 12%; with TTCTAGGATGATGTTC (sugars k3 d10 k3, PS), 72%; with TTCTATCAACCTGCAC (sugars k3 d10 k3, PS), 62%.
Still for that read-out and setting: with TTCTATTGTATGAGGT (sugars k3 d10 k3, PS) the figure was 0%; with TTCTCTTGACAATGGT (sugars k3 d10 k3, PS), 67%; with TTCTTGCAGAAATTCA (sugars k3 d10 k3, PS), 42%.
Same read-out and setting: with “TTGAACAGTCTTAAAC (sugars k3 d9 k3 e1, PS)” the figure was 35%; with TTGAAGACAATACAGG (sugars k3 d10 k3, PS), 63%; with TTGAATAGCAAGCCAA (sugars k3 d10 k3, PS), 31%.
“TTGACTGCTGCTAGTG (sugars kkdddddddddkekek, PS)”: the target mRNA inhibition turned out to be 29%.
The same measure, in the same setting: with TTGATAAAATAGGGTG (sugars k3 d10 k3, PS) the figure was 46%; with “TTGCACCGTTTTGGGC (sugars k3 d1 m1 d8 k3, PS)”, 50%.
Still for that read-out and setting: with “TTGCACCGTTTTGGGC (sugars kkdddddddddkekek, PS)” the figure was 26%; with “TTGCAGTTATTAGAAG (sugars k3 d1 m1 d8 k3, PS)”, 17%; with TTGCATAAGAGCCAAA (sugars k3 d10 k3, PS), 46%.
In the case of “TTGGAATGCTACTTGA (sugars k3 d1 m1 d8 k3, PS)”, the target mRNA inhibition came out at 65%.
Turning to TTGGCCGAGGAGGGCG (sugars k3 d10 k3, PS), the target mRNA inhibition is 3%.
In turn, TTGGGACCAATATAAT (sugars k3 d10 k3, PS) registered a target mRNA inhibition of 18%.
Same read-out and setting: with TTGGGTCCATTGTTTC (sugars k3 d10 k3, PS) the figure was 44%; with TTGGTATGGTAAGCCC (sugars k3 d10 k3, PS), 62%.
On the same count and under the same terms, with “TTGGUAAGTATTCCAT (sugars k3 d1 m1 d8 k3, PS)” the figure was 13%.
Sequence TTGTTAGAGTGCTTAG (sugars k3 d10 k3, PS) had a target mRNA inhibition of 76%.
On the same count and under the same terms, to TTGTTGATATTCTGTG (sugars k3 d10 k3, PS) belongs 52%; to TTTAAGAGGCATGAAA (sugars k3 d10 k3, PS), 40%; to TTTAGGGAGGTAGCTT (sugars k3 d10 k3, PS), 24%.
The same measure, in the same setting: to TTTATAGACTGGGTAG (sugars k3 d10 k3, PS) belongs 59%; to TTTATTATGAGGATCT (sugars k3 d10 k3, PS), 43%; to TTTATTGGTATGGTAA (sugars k3 d10 k3, PS), 25%.
Still for that read-out and setting: to TTTCACCTCAGGTGAC (sugars k3 d10 k3, PS) belongs 52%.
In turn, TTTCATGGCCTTACCA (sugars k3 d10 k3, PS) gave a target mRNA inhibition of 52%.
The same measure, in the same setting: with TTTCCTCCACACCGCG (sugars k3 d10 k3, PS) the figure was 18%.

The same data set, now with this note: ASO, HepaRG, 1.25 µM.
Consider TGTATTTCGCTACTGT (sugars k3 d10 k3, PS), for which the target mRNA inhibition was 80%.
Same read-out and setting: to TTATAACTACAAGAGG (sugars k3 d10 k3, PS) belongs 60%; to TTATGTAATAGCCAGT (sugars k3 d10 k3, PS), 78%.

Staying with this data set, now noted: ASO, HepaRG, 5 µM.
TGTATTTCGCTACTGT (sugars k3 d10 k3, PS) came in with a target mRNA inhibition of 90%.
On the same count and under the same terms, with TTATAACTACAAGAGG (sugars k3 d10 k3, PS) the figure was 82%; with TTATGTAATAGCCAGT (sugars k3 d10 k3, PS), 89%.
